Here are results for 35 molecules from BindingDB's records for doi:10.1016/j.bmcl.2012.03.099 (Rhône-Poulenc Rorer, 2012).

Molecules are shown by their SMILES.

By IC50 is commonly meant the concentration needed to halve the response being measured. The low end stands for inhibition by little substance, the high end for a need for much substance.

In this assay the target is Mitogen-activated protein kinase 14 (Homo sapiens) (UniProt Q16539). Kind of assay: Inhibition of p38alpha.
Chain of Mitogen-activated protein kinase 14 (Homo sapiens) (Q16539 whole entry, looked up): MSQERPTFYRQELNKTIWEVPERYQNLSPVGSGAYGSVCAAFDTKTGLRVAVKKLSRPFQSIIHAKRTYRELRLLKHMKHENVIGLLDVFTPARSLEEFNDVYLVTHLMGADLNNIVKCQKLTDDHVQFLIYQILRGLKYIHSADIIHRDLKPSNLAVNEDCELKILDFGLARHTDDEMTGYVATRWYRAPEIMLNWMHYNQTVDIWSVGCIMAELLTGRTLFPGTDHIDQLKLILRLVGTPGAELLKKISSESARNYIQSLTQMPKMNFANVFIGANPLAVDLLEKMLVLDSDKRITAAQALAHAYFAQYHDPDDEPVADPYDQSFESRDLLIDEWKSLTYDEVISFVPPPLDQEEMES

In turn, `CC(C)(C)c1nnc2ccc(Sc3ccc(F)cc3F)cn12` yielded an IC50 of 62 nM. For `Cc1ccc(C(=O)NC2CC2)cc1-c1ccn2c(C(C)(C)C)nnc2c1` the value was 16 nM. With `Cc1c(F)cc(C(=O)NC2CC2)cc1-c1c(F)cn2c(C(C)(C)C)nnc2c1F` the figure was 6.2 nM; with `Cc1c(F)cc(C(=O)NC2CC2)cc1-c1ccn2c(C(F)(F)F)nnc2c1`, 85 nM; with `Cc1c(F)cc(C(=O)NC2CC2)cc1-c1ccn2c(C(N)=O)nnc2c1`, 102 nM. For `Cc1c(F)cc(C(=O)NC2CC2)cc1-c1ccn2c(C(C)(C)N)nnc2c1` the value was 15.4 nM; for `COC(C)(C)c1nnc2cc(-c3cc(C(=O)NC4CC4)cc(F)c3C)ccn12`, 9.4 nM. `CC(=O)NC(C)(C)c1nnc2cc(-c3cc(C(=O)NC4CC4)cc(F)c3C)ccn12` showed a half-maximal inhibitory concentration (IC50) of 253 nM. Compared with the last molecule, the IC50 is about 27-fold higher.

`Cc1c(F)cc(C(=O)NC2CC2)cc1-c1ccn2c(C(C)(C)N(C)C)nnc2c1`: the IC50 is 1.7 nM. In the case of `Cc1c(F)cc(C(=O)NC2CC2)cc1-c1ccn2c(C(C)(C)O)nnc2c1`, the IC50 was determined as 3.1 nM.

For `Cc1ccc(C(=O)NC2CC2)cc1-c1c(F)cn2c(C(C)(C)C)nnc2c1F`, the IC50 worked out at 49 nM.

As to `Cc1c(F)cc(C(=O)NC2CC2)cc1-c1c(F)cn2c(C(C)C)nnc2c1F`, 6.7 nM corresponded to half-maximal inhibition (IC50).

Molecule `Cc1c(F)cc(C(=O)NC2CC2)cc1-c1c(F)cn2c(C3CC3)nnc2c1F` returned an IC50 of 10 nM.

For `Cc1c(F)cc(C(=O)NC2CC2)cc1-c1c(F)cn2c(-c3ccncc3Cl)nnc2c1F`, 23 nM corresponded to half-maximal inhibition (IC50). For `Cc1c(F)cc(C(=O)NC2CC2)cc1-c1c(F)cn2c(C(C)(C)N)nnc2c1F` the value was 12 nM; for `Cc1c(F)cc(C(=O)NC2CC2)cc1-c1c(F)cn2c(C(C)(C)N(C)C)nnc2c1F`, 15 nM. For `Cc1ccc(C(=O)NC2CC2)cc1-c1ccc2c(N3CCCCC3)noc2c1` the value was 14 nM; for `Cc1c(F)cc(C(=O)NC2CC2)cc1-c1ccn2c(C(C)(C)C)nnc2c1`, 2 nM; for `Cc1ccc(C(=O)NC2CC2)cc1-c1ccn2c(C(C)C)nnc2c1`, 27 nM. As for `Cc1c(F)cc(C(=O)NC2CC2)cc1-c1ccn2c(C(C)C)nnc2c1`, the IC50 is 3 nM.

Molecule `Cc1ccc(C(=O)NC2CC2)cc1-c1ccn2c(C3(C)CC3)nnc2c1` came in with an IC50 of 12 nM. In turn, `Cc1c(F)cc(C(=O)NC2CC2)cc1-c1ccn2c(C3(C)CC3)nnc2c1` displayed an IC50 of 0.64 nM. For `Cc1ccc(C(=O)NC2CC2)cc1-c1ccn2c(C3CCC3)nnc2c1` the value was 20 nM.

For `Cc1c(F)cc(C(=O)NC2CC2)cc1-c1ccn2c(C3CCC3)nnc2c1`, the IC50 worked out at 1.9 nM. Against the preceding molecule, the IC50 is about 11-fold lower. For `Cc1ccc(C(=O)NC2CC2)cc1-c1ccn2c(C3CCOCC3)nnc2c1` the value was 56 nM. For `Cc1c(F)cc(C(=O)NC2CC2)cc1-c1ccn2c(C3CCOCC3)nnc2c1` the value was 30 nM. For `Cc1ccc(C(=O)NC2CC2)cc1-c1ccn2c(-c3ccccc3Cl)nnc2c1` the value was 6.3 nM; for `Cc1c(F)cc(C(=O)NC2CC2)cc1-c1ccn2c(-c3ccccc3Cl)nnc2c1`, 1.6 nM; for `Cc1ccc(C(=O)NC2CC2)cc1-c1ccn2c(-c3ccncc3Cl)nnc2c1`, 38 nM. In the case of `Cc1c(F)cc(C(=O)NC2CC2)cc1-c1ccn2c(-c3ccncc3Cl)nnc2c1`, inhibition was half-maximal at 0.83 nM (IC50). In the case of `COC(C)c1nnc2cc(-c3cc(C(=O)NC4CC4)ccc3C)ccn12` (stereo not given), the IC50 amounted to 43 nM.

`COC(C)c1nnc2cc(-c3cc(C(=O)NC4CC4)cc(F)c3C)ccn12` (stereo not given) showed an IC50 of 18 nM. This IC50 is about 2.4-fold lower than that of the molecule before.

For `Cc1ccc(C(=O)NC2CC2)cc1-c1ccn2c(C(F)(F)F)nnc2c1`, half-maximal inhibition (IC50) was put at 853 nM. With `Cc1c(F)cc(C(=O)NC2CC2)cc1-c1ccn2c(C3CC3)nnc2c1` the figure was 6.7 nM. For `Cc1c(F)cc(C(=O)NC2CC2)cc1-c1ccn2c(C(C)(C)NS(C)(=O)=O)nnc2c1` the value was 17 nM.
